The target of this assay is T1, CsUGT78A14-1 (Camellia sinensis, UniProt A0A109P632).
T1 construct: gene UGT78A14; Ala438 allele
In words: UDP-Glo glycosyltransferase assay, steady-state kinetics. Conditions: co-substrate UDP-glucose (Glc row), donor fixed at 100 μM; acceptor varied 1-500 μM; optimized pH and temperature. It is filed as biochemical. The text has this: UDP-Glo glycosyltransferase assay, steady-state kinetics on CsUGT78A14-1

Km data for one compound are collected here from article PMC6941654, “Glucosyltransferase CsUGT78A14 Regulates Flavonols Accumulation and Reactive Oxygen Species Scavenging in Response to Cold Stress in Camellia sinensis” (Frontiers in Plant Science, 2019).

In general, Km refers to the concentration of substrate that gives half-maximal velocity.

T1 sequence (A0A109P632 entry or part of it): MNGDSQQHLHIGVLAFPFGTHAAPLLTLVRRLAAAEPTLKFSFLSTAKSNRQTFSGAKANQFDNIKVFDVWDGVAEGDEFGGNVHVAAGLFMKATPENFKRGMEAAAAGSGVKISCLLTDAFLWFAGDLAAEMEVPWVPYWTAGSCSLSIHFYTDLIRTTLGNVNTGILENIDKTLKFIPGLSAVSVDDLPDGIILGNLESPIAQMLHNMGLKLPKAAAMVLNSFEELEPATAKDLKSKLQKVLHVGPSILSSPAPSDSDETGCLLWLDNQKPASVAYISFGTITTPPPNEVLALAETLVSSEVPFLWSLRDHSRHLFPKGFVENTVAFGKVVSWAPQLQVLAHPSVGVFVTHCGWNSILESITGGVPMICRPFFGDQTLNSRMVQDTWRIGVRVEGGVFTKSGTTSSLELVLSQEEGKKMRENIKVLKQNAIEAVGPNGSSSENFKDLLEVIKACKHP

As for `O=c1c(O)c(-c2ccc(O)cc2)oc2cc(O)cc(O)c12` [kaempferol], the Km was 27.1 µM.
